# Like-named read-outs stand apart in the source and are kept apart here. Marks after values point to notes of the source that are not given here.
# Columns and labels:
# [1] = tested on: men and women with OAB; experiment: Phase 2b efficacy study in men and women with OAB; format: in vivo, human; settings: vibegron 100 mg, OAB wet subjects
# From the text: Part 2 was designed to continue to assess the safety and efficacy of concomitant dosing. […] Subjects in both Part 1 and Part 2 had the option of enrolling in a 1-year extension. Participants were required to keep a voiding diary, recording the occurrence of each strong urge, total incontinence, and urge incontinence episode. Efficacy data for Part 1 and Part 2 are summarized herein.
# The total number of urgency incontinence episodes must have exceeded the total number of stress incontinence episodes for all subjects.
# Conversely, a dose dependent effect on urge incontinence or total incontinence was not observed.
# [2] = molecular target: T1, β1-AR (Homo sapiens, UniProt P08588); experiment: Competition binding assay, membranes with recombinant β1-AR
# T1 construct: expressed in transfected cells; membranes prepared from them
# T1 sequence (P08588 whole entry): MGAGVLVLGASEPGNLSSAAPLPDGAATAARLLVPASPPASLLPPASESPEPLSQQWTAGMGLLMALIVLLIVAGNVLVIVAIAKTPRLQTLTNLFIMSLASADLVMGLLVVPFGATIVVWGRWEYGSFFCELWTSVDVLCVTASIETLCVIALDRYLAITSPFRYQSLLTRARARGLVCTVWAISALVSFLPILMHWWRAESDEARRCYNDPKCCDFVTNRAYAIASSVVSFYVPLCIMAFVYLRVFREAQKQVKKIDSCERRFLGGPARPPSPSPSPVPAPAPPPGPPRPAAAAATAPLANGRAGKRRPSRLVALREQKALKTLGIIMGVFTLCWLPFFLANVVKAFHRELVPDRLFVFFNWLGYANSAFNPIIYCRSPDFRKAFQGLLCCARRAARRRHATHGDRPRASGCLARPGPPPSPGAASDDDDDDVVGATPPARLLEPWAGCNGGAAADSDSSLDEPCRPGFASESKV
# [3] = tested on: patients with OAB; experiment: Phase 3 open-label 52-week study in OAB; format: in vivo, human; settings: 50 mg or 100 mg once daily, 52-week treatment period
# Procedure: After eight weeks, the dose could be increased to 100 mg once daily as clinically indicated.
# [4] = Multiple rising dose Phase 1 pharmacokinetics; format: in vivo, human
# From the text: The steady state AUC geometric mean accumulation ratios were ˜2 in young male subjects and ˜2.8 in elderly subjects (male and female).
# Although exposures were similar in middle-aged males when compared to young males, plasma concentrations were higher in elderly compared to middle-aged and young subjects. […] Furthermore, the steady state AUC geometric mean accumulation ratios were ˜2 in young males and ˜2.8 in the elderly.
# [5] = human, in vivo
# [6] = elderly female subjects, 100 mg
# [7] = multiple dose 25 mg, after 14 days, healthy young males
# [8] = multiple dose 50 mg, after 14 days, Japanese healthy young males
# [9] = multiple dose 50 mg, after 14 days, healthy young males
# [10] = multiple dose 100 mg, after 14 days, Japanese healthy young males
# [11] = multiple dose 100 mg, after 14 days, elderly Japanese
# [12] = multiple dose 100 mg, after 14 days, elderly male and female
# [13] = multiple dose 100 mg, after 14 days, healthy young males
# [14] = multiple dose 150 mg, after 14 days, healthy young males
# [15] = multiple dose 150 mg, after 14 days, middle-aged female
# [16] = multiple dose 150 mg, after 14 days, middle-aged male
# [17] = multiple dose 200 mg, after 14 days, Japanese healthy young males
# [18] = multiple dose 200 mg, after 14 days, healthy young males
# [19] = multiple dose 300 mg, after 14 days, healthy young males
# [20] = multiple dose 400 mg, after 14 days, healthy young males
smiles,measurement,setting,value
"O=C(Nc1ccc(C[C@@H]2CC[C@H]([C@H](O)c3ccccc3)N2)cc1)[C@@H]1CCc2nccc(=O)n21 [Vibegron, (6S)—N-[4-[[(2S,5R)-5-[(R)-hydroxy(phenyl)methyl]pyrrolidin-2-yl]methyl]phenyl]-4-oxo-7,8-dihydro-6H-pyrrolo[1,2-a]pyrimidine-6-carboxamide]","Total incontinence episodes, daily number, Week 8 mean",[1],1.12
same,"Total incontinence episodes, difference from placebo Week 8, difference in LS means",[1],−0.58
same,"Urgency incontinence episodes, change from baseline Week 8, mean",[1],−2.05
same,"Urgency incontinence episodes, daily number, Week 8 mean",[1],0.84
same,"Urgency incontinence episodes, difference from placebo Week 8, difference in LS means",[1],−0.71
same,binding to β1-AR,[2],does not bind
same,long-term efficacy,[3],"reduced episodes of micturitions, UUI episodes, total incontinence episodes, and urgency episodes"
same,"steady state Cmax, elderly compared to young males",[4]; 100 mg QD,~1.3 fold
same,"fe0-24 hr,ss","[4]; 100 mg, elderly subjects",~17%
same,"fe0-24 hr,ss","[4]; 100 and 150 mg, young males",~14%
same,steady state AUC higher in middle-aged females vs middle-aged males,[4]; 100 or 150 mg,~1.5 fold
same,steady state exposure (AUC0-24) higher in elderly Japanese vs elderly non-Japanese,[4]; Day 14,35%
same,steady state AUC0-24 hr,[4]; [6],2620 ng·h/mL
same,steady state Cmax,[4]; [6],278 ng/mL
same,renal clearance (CLR) at steady state,[4]; elderly subjects (male and female),127 mL/min
same,AUC0-24,"[4]; human, plasma, oral, multiple dose 150 mg, after 14 days, middle-aged female, read-out: AUC0-24",3180 ± 925 ng·h/mL
same,steady state exposures higher in Japanese vs non-Japanese young males,[4]; multiple dose,~30%
same,AUC0-24,[4]; [7],164 ± 25.9 ng·h/mL
same,Cmax,[4]; [7],15.6 ± 6.93 ng/mL
same,t1/2 (harmonic mean ± pseudo SD),[4]; [7],94.0 ± 9.60 h
same,AUC0-24,[4]; [8],613 ± 296 ng·h/mL
same,Cmax,[4]; [8],56.9 ± 34.2 ng/mL
same,t1/2 (harmonic mean ± pseudo SD),[4]; [8],69.4 ± 6.6 h
same,AUC0-24,[4]; [9],507 ± 176 ng·h/mL
same,Cmax,[4]; [9],41.5 ± 12.3 ng/mL
same,Ctrough,[4]; [9],15.2 ± 5.07 ng/mL
same,t1/2 (harmonic mean ± pseudo SD),[4]; [9],77.2 ± 8.9 h
same,AUC0-24,[4]; [10],1710 ± 542 ng·h/mL
same,t1/2 (harmonic mean ± pseudo SD),[4]; [10],56.8 ± 19.2 h
same,AUC0-24,[4]; [11],2920 ± 693 ng·h/mL
same,t1/2 (harmonic mean ± pseudo SD),[4]; [11],75.1 ± 3.9 h
same,AUC0-24,[4]; [12],2230 ± 671 ng·h/mL
same,Cmax,[4]; [12],224 ± 92.0 ng/mL
same,Ctrough,[4]; [12],54.2 ± 15.3 ng/mL
same,t1/2 (harmonic mean ± pseudo SD),[4]; [12],88.4 ± 10.7 h
same,AUC0-24,[4]; [13],1280 ± 529 ng·h/mL
same,Cmax,[4]; [13],169 ± 80.9 ng/mL
same,Ctrough,[4]; [13],31.9 ± 11.5 ng/mL
same,t1/2 (harmonic mean ± pseudo SD),[4]; [13],79.7 ± 11.5 h
same,AUC0-24,[4]; [14],2285 ± 1140 ng·h/mL
same,Cmax,[4]; [14],305 ± 215 ng/mL
same,t1/2 (harmonic mean ± pseudo SD),[4]; [14],79.2 ± 9.2 h
same,Cmax,[4]; [15],246 ± 139 ng/mL
same,t1/2 (harmonic mean ± pseudo SD),[4]; [15],83.1 ± 17.2 h
same,AUC0-24,[4]; [16],2170 ± 452 ng·h/mL
same,Cmax,[4]; [16],293 ± 67.1 ng/mL
same,t1/2 (harmonic mean ± pseudo SD),"[4]; multiple dose 150 mg, middle-aged male, determined after 28 days of dosing",72.7 ± 16.1^d hr
same,AUC0-24,[4]; [17],4370 ± 618 ng·h/mL
same,Cmax,[4]; [17],631 ± 154 ng/mL
same,t1/2 (harmonic mean ± pseudo SD),[4]; [17],59.5 ± 1.9 h
same,AUC0-24,[4]; [18],3200 ± 1120 ng·h/mL
same,Cmax,[4]; [18],313 ± 168 ng/mL
same,t1/2 (harmonic mean ± pseudo SD),[4]; [18],64.7 ± 6.5 h
same,AUC0-24,[4]; [19],6980 ± 1040 ng·h/mL
same,t1/2 (harmonic mean ± pseudo SD),[4]; [19],61.7 ± 7.3 h
same,AUC0-24,[4]; [20],10500 ± 2140 ng·h/mL
same,Cmax,[4]; [20],1400 ± 257 ng/mL
same,t1/2 (harmonic mean ± pseudo SD),[4]; [20],58.9 ± 5.9 h
same,time to steady state concentrations,[4]; once daily dosing,≤ 7 days
same,higher exposures (AUC) in females compared with males,[4]; regardless of age,50%
same,Cmax increased in elderly Japanese vs elderly non-Japanese,[4]; steady state,82%
same,dose recovered in feces,[5],approximately 59%
same,dose recovered in urine,[5],~20%
